Where two headings read alike, the source gives them in different places.
Tests used:
[1] = test system: influenza strain A/VN/1203/2004 (H5N1); test: microbe, parasite or virus in culture; format: cell-based, Influenza A virus (H5N1)
[2] = test system: Madin Darby Canine Kidney (MDCK) cells; test: cells; format: cell-based; conditions: Canis lupus familiaris, MDCK, read-out: IC50 (toxicity)
[3] = test system: Influenza virus strain A/CA/04/2009 (H1N1); test: organism not typed; format: cell-based; conditions: MDCK, 72 h, read-out: H1N1 EC50 (@ 50% Via)
[4] = Influenza A virus, H5N1, MDCK, 72 h, read-out: H5N1 EC50 (@ 50% Via)
[5] = Influenza A virus, H5N1, MDCK, 72 h, read-out: H5N1 EC50 (Inf Pt)
[6] = read-out: H5N1 EC50 (@ 50% Via)

SMILES	EC50 [1, 4]	EC50 [1, 5]	EC50 [1, 6]	EC50 ([1]; read-out: H5N1 EC50 (Inf Pt))	IC50 [2]	EC50 [3]
O=C1NC2=C(COc3ccccc32)C(c2ccc(O)c(Br)c2)N1 (stereo not drawn) [compound 22701]	26.2 nM	21 nM	27 nM	27 nM	> 20000 nM	1600 nM
COc1c(Br)cc(C2NC(=O)NC3=C2CCc2ccccc23)cc1Br (stereo not drawn) [compound 22703]	38000 nM	> 40000 nM			> 40000 nM	> 40000 nM
CCOc1c(Br)cc(C2NC(=O)NC3=C2CCc2ccccc23)cc1Br (stereo not drawn) [compound 22704]	> 40000 nM	> 40000 nM			> 40000 nM	> 40000 nM
Cc1cc(C2NC(=O)NC3=C2CCc2ccccc23)ccc1O (stereo not drawn) [compound 22706]					> 50000 nM	4800 nM
O=C1NC2=C(CCc3ccccc32)C(c2ccc(O)c(Br)c2)N1 (stereo not drawn) [compound 22709]					> 53000 nM	118 nM
CCOc1ccc(C2NC(=O)NC3=C2CCc2ccccc23)cc1C (stereo not drawn) [compound 22711]	1300 nM	1200 nM			> 50000 nM	37000 nM
COc1ccc(C2NC(=O)NC3=C2CCc2c(OC)cccc23)cc1Br (stereo not drawn) [compound 22722]	> 62 nM	> 62 nM			> 62 nM	1100 nM
COc1ccc(C2NC(=O)NC3=C2CCCc2ccccc23)cc1Br (stereo not drawn) [compound 23096]	242 nM	280 nM			> 40000 nM	153 nM
CC(=O)Oc1ccc(C2NC(=O)NC3=C2COc2ccccc23)cc1Br (stereo not drawn) [compound 23097]	92.8 nM	102 nM			> 40000 nM	1000 nM
O=C1NC2=C(COc3ccccc32)C(c2ccc(F)c(Br)c2)N1 (stereo not drawn) [compound 23098]	1200 nM	1300 nM			> 40000 nM	> 40000 nM
COc1ccc(C2NC(=O)NC3=C2CN(C(C)=O)c2ccccc23)cc1Br (stereo not drawn) [compound 23099]					> 40000 nM	6.2 nM
COc1ccc(C2NC(=O)NC3=C2CCc2ncccc23)cc1Br (stereo not drawn) [compound 23102]	14500 nM				> 40000 nM	> 40000 nM
CCC(=O)N1CC2=C(NC(=O)NC2c2ccc(OC)c(Br)c2)c2ccccc21 (stereo not drawn) [compound 23205]	193 nM	189 nM			> 40000 nM	10100 nM
COc1ccc(C2NC(=O)NC3=C2CN(C(=O)COC(C)=O)c2ccccc23)cc1Br (stereo not drawn) [compound 23206]	22 nM	22 nM	11.9 nM	11.2 nM	> 40000 nM	25.7 nM
COc1ccc(C2NC(=O)NC3=C2CN(C(=O)c2ccco2)c2ccccc23)cc1Br (stereo not drawn) [compound 23209]	> 40000 nM	> 40000 nM			> 40000 nM	> 40000 nM
COc1ccc(C2NC(=O)NC3=C2COc2ccccc23)cc1C (stereo not drawn) [compound 23210]	332 nM	307 nM			> 40000 nM	3100 nM
COc1ccc(C2NC(=O)NC3=C2CN(C(=O)CN2CCOCC2)c2ccccc23)cc1Br (stereo not drawn) [compound 23272]	9100 nM	8700 nM			> 40000 nM	3500 nM
COc1ccc(C2NC(=O)NC3=C2CN(C(=O)c2ccc4c(c2)OCO4)c2ccccc23)cc1Br (stereo not drawn) [compound 23274]	> 40000 nM	> 40000 nM			> 40000 nM	> 40000 nM
COc1ccc(C2NC(O)NC3=C2CN(C(=O)CO)c2ccccc23)cc1Br (stereo not drawn) [compound 23275]	2.7 nM	2.7 nM			> 40000 nM	< 67 nM
COc1ccc(C2NC(=O)NC3=C2CN(C(=O)CNCCO)c2ccccc23)cc1Br (stereo not drawn) [compound 24717]	2100 nM	2100 nM			> 40000 nM	5600 nM
COc1ccc(C2NC(=O)NC3=C2CN(C(=O)CNC2CC2)c2ccccc23)cc1Br (stereo not drawn) [compound 24718]	9700 nM	9700 nM			> 40000 nM	8000 nM
COc1ccc(C2NC(=O)NC3=C2CN(C(=O)Cn2ccnc2)c2ccccc23)cc1Br (stereo not drawn) [compound 25010]	< 316 nM	82 nM			> 40000 nM	
COc1ccc(C2NC(=O)NC3=C2CN(C(=O)CNCCN2CCOCC2)c2ccccc23)cc1Br (stereo not drawn) [compound 25011]	3900 nM	3900 nM			> 40000 nM	
COc1ccc(C2NC(=O)NC3=C2CN(C(=O)CN(C)C)c2ccccc23)cc1Br (stereo not drawn) [compound 25012]	< 330 nM	200 nM			> 40000 nM	3000 nM
COc1ccc(C2NC(=O)NC3=C2CN(C(=O)CNC(C)=O)c2ccccc23)cc1Br (stereo not drawn) [compound 25350]	45 nM	44 nM			> 40000 nM	622 nM
COC(=O)N1CC2=C(NC(=O)NC2c2ccc(OC)c(Br)c2)c2ccccc21 (stereo not drawn) [compound 25408]	208 nM	201 nM			> 40000 nM	9700 nM
COc1ccc(C2NC(=O)NC3=C2CN(C(=O)CSCCN(C)C)c2ccccc23)cc1Br (stereo not drawn) [compound 25410]	714 nM	669 nM				15600 nM
